Measurements taken from US10144736B2 (Gilead Sciences, Inc., priority 2006, dated 2018).
Like-named read-outs stand apart in the source and are kept apart here.

Legend:
HCV replicon = test: Anti-HCV replicon assay (EC50, luciferase readout); format: cell-based, hepatitis C virus; details: human hepatoma Huh-7 cell line harbouring a HCV replicon, 3 days incubation, luciferase signal
Method: (§1) The anti HCV activity of specifically substituted pteridine derivatives was tested in a human hepatoma Huh-7 cell line harbouring a HCV replicon. The assay comprised the following steps:
(§2) Step 1: compound preparation and serial dilution involved the following alternatives, depending upon the water solubility of pteridine derivative being tested:
(§3) • 1. with respect to water soluble pteridine derivatives, 500 μL of solution in cell media (DMEM, 10% FBS, P/S, L-Glutamine) was prepared with a concentration that is twice the concentration of the starting final serial dilution concentration. 150 μL of the solution was added to the pre-specified wells in column 1 of a 96-well cell culture plate (PerkinElmer, white plate, cat. #6005181, for EC50 assay; black plate, cat. #6005182 for CC50 assay). The rest of the plate, i.e. columns 2-12, was filled with 100 μL of cell media. The plate was then placed on a Precision 2000 Workstation in order to start serial dilution. Pteridine compounds were diluted three times each step from column 1 to column 10. Column 11 was used as a blank control (no pteridine compound added). • 2. With respect to poorly water soluble pteridine derivatives, DMSO was used as a solvent, and serial dilution was performed in 50% DMSO in water, in a 384-well plate. A solution containing the relevant compound at 100-fold the concentration of the starting final serial dilution concentration was prepared in 50% DMSO in water and added to the pre-specified wells in column 1 of a polypropylene 384-well plate. This plate was then placed on a Precision 2000 Workstation in order to start serial dilution. After serial dilution, 2 μL of the solution was transferred from the 384-well plate to a 96-well cell culture plate containing 100 μL of cell media on a Biomek FX Workstation. The DMSO concentration in the final assay condition was 0.5% after cells have been added to the plate and the total volume in each well was brought to 200 μL. Step 2: to each well of the serial dilution plate prepared in step 1, 100 μL of cell media containing 6000 suspended Huh-7 HCV replicon cells was added with a Multidrop workstation. Plates were incubated for 3 days at 37° C. with 5% CO2. Step 3: detection: • 1) with respect to the EC50 assay, the media in a 96-well cell culture plate was aspirated with a Biotek EL405 plate-washer. A volume of 200 μL of a solution containing a 1:1 mixture of a cell-lysis buffer (commercially available from Promega, Luciferase Cell Culture Lysis 5X Reagent, cat. #E1531) and a luciferase substrate solution (commercially available from Promega, Luciferase Assay, cat. #E4550) was added to each well of the plate with Multidrop. The plate was incubated for 30 minutes at room temperature before the luminescence signal was measured with a TopCount plate-reader. • 2) with respect to the CC50 assay, 100 μL of a pre-mixed CellTiter-Glo (commercially available from Promega, cat. #G7572) solution was added directly to the cell culture in each well of the plate and the luminescence signal was measured with a TopCount plate-reader after 10 minutes of incubation at room temperature.
(§4) Results are expressed by the following data: • the 50% effective concentration (EC50), i.e. the concentration that protects 50% of the cell monolayer from virus-induced cythopathic effect. • the 50% cytostatic concentration (CC50), i.e. the concentration that results in 50% inhibition of cell growth.

[1] = CC50 assay (CellTiter-Glo) in Huh-7 HCV replicon cells; format: cell-based, human; details: human, 3 days incubation, 50% cytostatic concentration
Method: as §1, §2, §3, §4

[2] = Hepatitis C virus, 72 h, read-out: EC50

SMILES	EC50 (HCV replicon; [2])	CC50 at 3 days [1]	EC50 (HCV replicon; Hepatitis C virus, Huh-7, 72 h)	EC50 (HCV replicon)	EC50 (HCV replicon; Hepatitis C virus, Huh-7, in Homo sapiens, 72 h)
CCOc1nc(N)nc2ncc(-c3ccc(OC)c(F)c3)nc12 [Example 3, 4-ethoxy-6-(3-fluoro-4-methoxyphenyl)pteridin-2-ylamine]	1 to 10 µM	> 20 µM			
CCOc1nc(N)nc2ncc(-c3ccc(Cl)cc3)nc12 [Example 27, 6-(4-chlorophenyl)-4-ethoxypteridin-2-ylamine]		< 10 µM	0.3 to 1 µM		
CCOc1nc(N)nc2ncc(-c3ccc(S(C)(=O)=O)cc3)nc12 [Example 30, 4-ethoxy-6-(4-(methylsulfonyl)phenyl)pteridin-2-ylamine]	1 to 10 µM	> 20 µM			
CCOc1nc(N)nc2ncc(-c3ccncc3)nc12 [Example 31, 4-ethoxy-6-(pyridin-4-yl)pteridin-2-ylamine]	0.3 to 1 µM	< 10 µM			
CCOc1nc(N)nc2ncc(-c3ccc(C)cc3)nc12 [Example 54, 4-ethoxy-6-p-tolylpteridin-2-ylamine]	1 to 10 µM	> 20 µM			
CCOc1nc(N)nc2ncc(-c3ccc(O)cc3)nc12 [Example 57, 4-(2-amino-4-ethoxypteridin-6-yl)phenol]		> 20 µM	1 to 10 µM		
CCOc1nc(N)nc2ncc(-c3ccc(N)cc3)nc12 [Example 69, 6-(4-aminophenyl)-4-ethoxypteridin-2-ylamine]		> 20 µM	1 to 10 µM		
Nc1nc(N2CCOCC2)c2nc(-c3ccccc3Cl)cnc2n1 [Example 78, 6-(2-chlorophenyl)-4-morpholinopteridin-2-ylamine]		< 10 µM	0.3 to 1 µM		
Nc1nc(N2CCOCC2)c2nc(-c3ccccc3C(F)(F)F)cnc2n1 [Example 79, 4-morpholino-6-(2-(trifluoromethyl)phenyl)pteridin-2-ylamine]	0.3 to 1 µM	< 10 µM			
COc1ccccc1-c1cnc2nc(N)nc(N3CCOCC3)c2n1 [Example 80, 6-(2-methoxyphenyl)-4-morpholinopteridin-2-ylamine]	0.3 to 1 µM	> 20 µM			
Nc1nc(N2CCOCC2)c2nc(-c3cccc(Cl)c3)cnc2n1 [Example 82, 6-(3-chlorophenyl)-4-morpholinopteridin-2-ylamine]		> 20 µM	0.3 to 1 µM		
Nc1nc(N2CCOCC2)c2nc(-c3cccc(OC(F)(F)F)c3)cnc2n1 [Example 84, 4-morpholino-6-(3-(trifluoromethoxy)phenyl)-pteridin-2-ylamine]	< 0.3 µM	< 10 µM			
N#Cc1cccc(-c2cnc3nc(N)nc(N4CCOCC4)c3n2)c1 [Example 85, 3-(2-amino-4-morpholinopteridin-6-yl)benzonitrile]	1 to 10 µM	> 20 µM			
Nc1nc(N2CCOCC2)c2nc(-c3ccc(CN4CCOCC4)cc3)cnc2n1 [Example 89, 4-morpholino-6-(4-(morpholino-methyl)phenyl)pteridin-2-ylamine]	1 to 10 µM	> 20 µM			
Nc1nc(N2CCOCC2)c2nc(-c3cccc(F)c3F)cnc2n1 [Example 90, 6-(2,3-difluorophenyl)-4-morpholinopteridin-2-ylamine]		> 20 µM		0.3 to 1 µM	
Nc1nc(N2CCOCC2)c2nc(-c3cccc(Cl)c3Cl)cnc2n1 [Example 91, 6-(2,3-dichlorophenyl)-4-morpholinopteridin-2-amine]		> 20 µM	0.3 to 1 µM		
Nc1nc(N2CCOCC2)c2nc(-c3ccc(F)cc3Cl)cnc2n1 [Example 92, 6-(2-chloro-4-fluorophenyl)-4-morpholinopteridin-2-ylamine]		10 to 20 µM	0.3 to 1 µM		
Nc1nc(N2CCOCC2)c2nc(-c3ccc(C(F)(F)F)cc3C(F)(F)F)cnc2n1 [Example 93, 6-(2,4-bis(trifluoromethyl)phenyl)-4-morpholinopteridin-2-ylamine]	1 to 10 µM	10 to 20 µM			

SMILES	EC50 (HCV replicon; [2])	CC50 at 3 days [1]	EC50 (HCV replicon; Hepatitis C virus, Huh-7, 72 h)	EC50 (HCV replicon)	EC50 (HCV replicon; Hepatitis C virus, Huh-7, in Homo sapiens, 72 h)
Nc1nc(N2CCOCC2)c2nc(-c3c(Cl)cccc3Cl)cnc2n1 [Example 95, 6-(2,6-dichlorophenyl)-4-morpholinopteridin-2-ylamine]		10 to 20 µM	1 to 10 µM		
Nc1nc(N2CCOCC2)c2nc(-c3cccnc3)cnc2n1 [Example 108, 4-morpholino-6-(pyridin-3-yl)pteridin-2-ylamine]	0.3 to 1 µM	10 to 20 µM			
Nc1nc(N2CCOCC2)c2nc(-c3cccnc3F)cnc2n1 [Example 109, 6-(2-fluoropyridin-3-yl)-4-morpholino-pteridin-2-ylamine]		10 to 20 µM	1 to 10 µM		
Nc1nc(N2CCOCC2)c2nc(-c3ccsc3)cnc2n1 [Example 110, 4-morpholino-6-(thiophen-3-yl)pteridin-2-ylamine]	1 to 10 µM	> 20 µM			
Nc1nc(N2CCOCC2)c2nc(-c3ccoc3)cnc2n1 [Example 111, 6-(furan-3-yl)4-morpholinopteridin-2-ylamine]		> 20 µM	1 to 10 µM		
Nc1nc(N2CCOCC2)c2nc(-c3ccn[nH]3)cnc2n1 [Example 112, 4-morpholino-6-(1H-pyrazol-5-yl)pteridin-2-ylamine]	1 to 10 µM	> 20 µM			
CNC(=O)c1ccc(-c2cnc3nc(N)nc(N4CCOCC4)c3n2)cc1 [Example 114, 4-(2-amino-4-morpholinopteridin-6-yl)-N-methylbenzamide]	1 to 10 µM	> 20 µM			
Cc1cc(F)ccc1-c1cnc2nc(N)nc(N3CCOCC3)c2n1 [Example 120, 6-(4-fluoro-2-methylphenyl)-4-morpholinopteridin-2-ylamine]	1 to 10 µM	10 to 20 µM			
Nc1nc(N2CCOCC2)c2nc(-c3ccc(C(F)(F)F)cc3Cl)cnc2n1 [Example 121, 6-(2-chloro-4-(trifluoromethyl)phenyl)-4-morpholinopteridin-2-ylamine]	1 to 10 µM	10 to 20 µM			
Nc1nc(N2CCOCC2)c2nc(-c3cc4ccccc4s3)cnc2n1 [Example 123, 6-(benzo[b]thiophen-2-yl)-4-morpholinopteridin-2-ylamine]		< 10 µM	0.3 to 1 µM		
CCOc1cccc(-c2cnc3nc(N)nc(N4CCOCC4)c3n2)c1 [Example 126, 6-(3-ethoxyphenyl)-4-morpholinopteridin-2-ylamine]	1 to 10 µM	10 to 20 µM			
Nc1nc(N2CCOCC2)c2nc(-c3ccc(Cl)s3)cnc2n1 [Example 127]		< 10 µM			0.3 to 1 µM
COC(=O)Nc1ccc(-c2cnc3nc(N)nc(N4CCOCC4)c3n2)cc1 [Example 129, methyl 4-(2-amino-4-morpholinopteridin-6-yl)phenylcarbamate]	< 0.3 µM	< 10 µM			
COc1ccc(-c2cnc3nc(N)nc(N4CCOCC4)c3n2)cn1 [Example 130, 6-(6-methoxypyridin-3-yl)-4-morpholinopteridin-2-ylamine]	1 to 10 µM	> 20 µM			
Nc1nc(N2CCOCC2)c2nc(-c3cc4ccccc4o3)cnc2n1 [Example 133, 6-(benzofuran-2-yl)-4-morpholinopteridin-2-ylamine]	0.3 to 1 µM	> 20 µM			
Nc1nc(N2CCOCC2)c2nc(-c3ccc4c(c3)CC(=O)N4)cnc2n1 [Example 136, 5-(2-amino-4-morpholinopteridin-6-yl)indolin-2-one]	1 to 10 µM	10 to 20 µM			
CC(C)C(=O)Nc1ccc(-c2cnc3nc(N)nc(N4CCOCC4)c3n2)cc1 [Example 137, N-(4-(2-amino-4-morpholinopteridin-6-yl)phenyl)isobutyramide]	< 0.3 µM	10 to 20 µM			
CC(C)(C)C(=O)Nc1ccc(-c2cnc3nc(N)nc(N4CCOCC4)c3n2)cc1 [Example 138, N-(4-(2-amino-4-morpholinopteridin-6-yl)phenyl)pivalamide]	1 to 10 µM	10 to 20 µM			
